Where a SMILES comes first, the peptide text is derived from it.
Columns and labels:
Format in all cases: functional, cell-based
[1] = Osteoblastic proliferative activity in […] MC3T3-E1 cells at 10^-2 mM by MTT assay
[2] = Osteoblastic proliferative activity in […] MC3T3-E1 cells at 10^-3 mM by MTT assay
[3] = Osteoblastic proliferative activity in rat MC3T3-E1 cells at 10^-4 mM by MTT assay
[4] = Osteoblastic proliferative activity in […] MC3T3-E1 cells at 10^-5 mM by MTT assay
[5] = Osteoblastic proliferative activity in […] MC3T3-E1 cells at 10^-6 mM by MTT assay

Compound | Activity [1] [%] | Activity [2] [%] | Activity [3] [%] | Activity [4] [%] | Activity [5] [%]
CC[C@H](C)[C@@H]1NC(=O)[C@H]([C@@H](C)O)NC(=O)[C@H](C(C)C)NC(=O)[C@@H]2CCCN2C(=O)CNC(=O)[C@H](Cc2ccccc2)NC1=O (cyclo(FGPVTI)) | 22.5 | 17 | 26.3 | 33.9 | 17.2
[F-].[Na+] | 46.2 | – | – | – | –
CC(C)C[C@@H]1NC(=O)[C@H]([C@@H](C)O)NC(=O)[C@H](CC(C)C)NC(=O)[C@@H]2CCCN2C(=O)CNC(=O)[C@H](Cc2ccccc2)NC1=O (cyclo(FGPLTL)) | 13.7 | 3.9 | 21.7 | 38.2 | 25.4

Reference: ChEMBL document CHEMBL1955866, “New cyclic peptides with osteoblastic proliferative activity from Dianthus superbus” (Bioorg Med Chem Lett, 2012)
